In patent US11814367B2, “Inhibitors of glycogen synthase 1 (GYS1) and methods of use thereof” (Maze Therapeutics, Inc., priority 2021, dated 2023):

Columns and labels:
[1] = target: hGYS1 enzyme (recombinant hGYS1/GN1 protein) (Homo sapiens (Human), UniProt P13807); assay: GYS1 coupled enzyme assay (PK/LDH); type: biochemical; conditions: hGYS1/GN1 50 nM, UDP-Glucose 0.8 mM, G6P 1 mM; geometric mean of at least 2 runs
[2] = target: hGYS2 enzyme (recombinant hGYS2/GN1 protein) (Homo sapiens (Human), UniProt P54840); assay: GYS2 coupled enzyme assay (PK/LDH); type: biochemical; conditions: geometric mean of at least 2 assay runs on separate days, read-out: Avg_IC50
Chain of hGYS2 enzyme (recombinant hGYS2/GN1 protein) (P54840 whole entry): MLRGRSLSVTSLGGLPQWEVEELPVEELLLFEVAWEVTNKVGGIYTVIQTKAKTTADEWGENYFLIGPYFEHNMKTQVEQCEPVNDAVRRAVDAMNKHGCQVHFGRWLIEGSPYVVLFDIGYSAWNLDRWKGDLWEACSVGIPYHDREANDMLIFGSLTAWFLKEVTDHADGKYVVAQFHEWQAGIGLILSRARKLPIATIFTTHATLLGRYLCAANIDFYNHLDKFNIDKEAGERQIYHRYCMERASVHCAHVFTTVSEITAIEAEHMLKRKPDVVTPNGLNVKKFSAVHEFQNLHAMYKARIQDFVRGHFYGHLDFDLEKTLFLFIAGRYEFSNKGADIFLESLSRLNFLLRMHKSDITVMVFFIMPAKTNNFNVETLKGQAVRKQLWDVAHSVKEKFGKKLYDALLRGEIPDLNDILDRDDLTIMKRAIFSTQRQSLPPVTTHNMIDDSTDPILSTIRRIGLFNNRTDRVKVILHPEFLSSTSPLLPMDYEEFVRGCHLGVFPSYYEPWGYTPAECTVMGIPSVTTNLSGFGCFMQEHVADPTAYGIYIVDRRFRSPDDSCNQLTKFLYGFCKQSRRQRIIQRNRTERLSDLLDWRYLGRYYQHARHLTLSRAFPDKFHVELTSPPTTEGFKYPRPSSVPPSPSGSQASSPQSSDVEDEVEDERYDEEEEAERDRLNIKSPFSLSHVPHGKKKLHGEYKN
Chain of hGYS2 enzyme (recombinant hGYS2/GN1 protein) (P46976 whole entry partner): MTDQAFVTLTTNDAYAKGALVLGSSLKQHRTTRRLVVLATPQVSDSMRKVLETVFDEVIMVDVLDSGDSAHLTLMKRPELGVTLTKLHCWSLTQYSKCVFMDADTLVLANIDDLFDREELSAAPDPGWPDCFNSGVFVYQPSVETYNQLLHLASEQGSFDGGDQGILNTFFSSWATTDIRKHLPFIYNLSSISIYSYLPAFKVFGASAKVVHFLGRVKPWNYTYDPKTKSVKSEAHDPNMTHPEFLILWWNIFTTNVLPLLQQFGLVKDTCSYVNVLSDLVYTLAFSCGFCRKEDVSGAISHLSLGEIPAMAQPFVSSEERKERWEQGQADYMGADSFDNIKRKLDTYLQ
Summary of the method: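 IC50 came from Hill fits of duplicate percent inhibition, based on control-normalized slopes of 340 nm NADH decline read each minute for 10 min. The reaction held recombinant hGYS2/GN1 (200 nM) with glycogen, UDP-glucose, G6P and PEP, plus PK/LDH coupling at pH 7.5 and 2.5% DMSO.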

Chain of hGYS1 enzyme (recombinant hGYS1/GN1 protein) (P13807 whole entry): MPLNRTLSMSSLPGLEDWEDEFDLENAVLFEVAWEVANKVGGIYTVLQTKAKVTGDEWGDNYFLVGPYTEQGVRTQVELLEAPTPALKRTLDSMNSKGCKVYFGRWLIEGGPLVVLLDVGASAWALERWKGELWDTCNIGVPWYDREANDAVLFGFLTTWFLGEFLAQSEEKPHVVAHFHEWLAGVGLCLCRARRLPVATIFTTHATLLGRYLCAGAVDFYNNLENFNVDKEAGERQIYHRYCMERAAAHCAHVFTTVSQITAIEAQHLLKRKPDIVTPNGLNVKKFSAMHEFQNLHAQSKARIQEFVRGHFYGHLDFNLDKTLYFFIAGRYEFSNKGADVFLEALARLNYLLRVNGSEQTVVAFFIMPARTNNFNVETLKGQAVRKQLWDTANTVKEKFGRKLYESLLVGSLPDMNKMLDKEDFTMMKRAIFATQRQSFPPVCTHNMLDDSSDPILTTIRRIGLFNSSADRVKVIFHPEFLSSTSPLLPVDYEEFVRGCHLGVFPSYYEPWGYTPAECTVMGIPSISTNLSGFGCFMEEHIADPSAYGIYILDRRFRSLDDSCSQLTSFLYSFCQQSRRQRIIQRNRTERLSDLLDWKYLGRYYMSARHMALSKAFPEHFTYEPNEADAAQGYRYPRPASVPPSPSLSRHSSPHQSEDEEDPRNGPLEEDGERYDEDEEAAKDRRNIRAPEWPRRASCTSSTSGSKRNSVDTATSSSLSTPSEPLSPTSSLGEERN
Chain of hGYS1 enzyme (recombinant hGYS1/GN1 protein) (P46976 whole entry partner): as the sequence (P46976 whole entry partner) above

Structure (SMILES): CC(=O)N1CC(C)(CC(=O)N2C[C@H](F)C[C@H]2C(=O)N[C@@H](c2ccccc2)c2ccc(C(C)C)cc2)C1 [Compound 154, (2S,4R)-1-[2-(1-acetyl-3-methylazetidin-3-yl)acetyl]-4-fluoro-N-[(S)-phenyl[4-(propan-2-yl)phenyl]methyl]pyrrolidine-2-carboxamide]
- IC50 [1]: 0.285 µM
- IC50 [2]: > 100 µM

Structure (SMILES): CC(C)c1ccc([C@@H](NC(=O)[C@@H]2C[C@@H](F)CN2C(=O)C(C)n2ccccc2=O)c2ccccc2)cc1 (stereo partly drawn) [Compound 73, (2S,4R)-4-fluoro-1-[2-(2-oxo-1,2-dihydropyridin-1-yl)propanoyl]-N-[(S)-phenyl[4-(propan-2-yl)phenyl]methyl]pyrrolidine-2-carboxamide]
- IC50 [1]: 0.105 µM
- IC50 [2]: > 100 µM

Structure (SMILES): CC(C)c1ccc([C@@H](NC(=O)[C@@H]2C[C@@H](F)CN2C(=O)Cc2ccn(C)n2)c2ccccc2)cc1F [Compound 350, (2S,4R)-4-fluoro-N-[(S)-[3-fluoro-4-(propan-2-yl)phenyl](phenyl)methyl]-[2-(1-methyl-1H-pyrazol-3-yl)acetyl]pyrrolidine-2-carboxamide]
- IC50 [1]: 0.02 µM
- IC50 [2]: > 100 µM

Structure (SMILES): Cc1cn(CC(=O)N2C[C@H](F)C[C@H]2C(=O)N[C@@H](c2ccccc2)c2ccc(C(C)C)c(F)n2)c(=O)n(C)c1=O [Compound 386, (2S,4R)-1-[2-(3,5-dimethyl-2,4-dioxo-1,2,3,4-tetrahydropyrimidin-1-yl)acetyl]-4-fluoro-N-[(S)-[6-fluoro-5-(propan-2-yl)pyridin-2-yl](phenyl)methyl] pyrrolidine-2-carboxamide]
- IC50 [1]: 0.005 µM
- IC50 [2]: > 100 µM

Structure (SMILES): CC(C)c1ccc([C@@H](NC(=O)[C@@H]2C[C@@H](F)CN2C(=O)C(C)n2cnnn2)c2ccccc2)cc1F (single isomer, unassigned) [Compound 767, (2S,4R)-4-fluoro-N-[(S)-[3-fluoro-4-(propan-2-yl)phenyl](phenyl)methyl]-1-[(2S) or (2R)-2-(1H-1,2,3,4-tetrazol-1-yl)propanoyl]pyrrolidine-2-carboxamide]
- IC50 [1]: 0.106 µM
- IC50 [2]: > 100 µM

Structure (SMILES): COc1ccccc1[C@H](NC(=O)[C@@H]1CCCN1C(C)=O)c1ccc(C(C)C)cc1 [Compound 639, (2S)-1-acetyl-N-[(R)-(2-methoxyphenyl)[4-(propan-2-yl)phenyl]methyl] pyrrolidine-2-carboxamide]
- IC50 [1]: 0.921 µM
- IC50 [2]: > 100 µM

Structure (SMILES): CC(=O)N1CCOC(C(=O)N2C[C@H](F)C[C@H]2C(=O)N[C@@H](c2ccccc2)c2ccc(C(C)C)cc2)C1 (stereo partly drawn) [Compound 141, (2S,4R)-1-(4-acetylmorpholine-2-carbonyl)-4-fluoro-N-[(S)-phenyl[4-(propan-2-yl)phenyl]methyl]pyrrolidine-2-carboxamide]
- IC50 [1]: 0.181 µM
- IC50 [2]: > 100 µM

Structure (SMILES): CC(C)c1ccc([C@@H](NC(=O)[C@@H]2C[C@@H](F)CN2C(=O)Cn2ccnn2)c2ccccc2)cc1 (stereo in doubt) [Compound 222, (2RS,4R)-4-fluoro-N-[(S)-phenyl[4-(propan-2-yl)phenyl]methyl]-1-[2-(1H-1,2,3-triazol-1-yl)acetyl]pyrrolidine-2-carboxamide]
- IC50 [1]: 0.04 µM
- IC50 [2]: > 100 µM

Structure (SMILES): COc1cccnc1CCC(=O)N1C[C@H](F)C[C@H]1C(=O)N[C@@H](c1ccccc1)c1ccc(C(C)C)cc1 [Compound 135, (2S,4R)-4-fluoro-1-[3-(3-methoxypyridin-2-yl)propanoyl]-N-[(S)-phenyl[4-(propan-2-yl)phenyl]methyl]pyrrolidine-2-carboxamide]
- IC50 [1]: 0.044 µM
- IC50 [2]: > 100 µM

Structure (SMILES): O=C(N[C@@H](c1ccccc1)c1ccc(C2CC2)c(F)c1)[C@@H]1C[C@@H](F)CN1C(=O)Cc1nnco1 [Compound 426, (2S,4R)-N-[(S)-(4-cyclopropyl-3-fluorophenyl)(phenyl)methyl]-4-fluoro-1-[2-(1,3,4-oxadiazol-2-yl)acetyl]pyrrolidine-2-carboxamide]
- IC50 [1]: 0.363 µM
- IC50 [2]: > 100 µM

Structure (SMILES): O=C(N[C@@H](c1ccccc1)c1ccc(C2CC2)c(F)c1)[C@@H]1C[C@@H](F)CN1C(=O)Cc1cn[nH]c1 [Compound 437, (2S,4R)-N-[(S)-(4-cyclopropyl-3-fluorophenyl)(phenyl)methyl]-4-fluoro-1-[2-(1H-pyrazol-4-yl)acetyl]pyrrolidine-2-carboxamide]
- IC50 [1]: 0.157 µM
- IC50 [2]: > 100 µM

Structure (SMILES): O=C(NC(c1ccccc1)c1cc(F)c(C2CC2)c(F)c1)[C@@H]1C[C@@H](F)CN1C(=O)Cc1ncco1 (single isomer, unassigned) [Compound 662]
- IC50 [1]: 0.227 µM
- IC50 [2]: > 100 µM

Structure (SMILES): Cc1nnnn1CC(=O)N1C[C@H](F)C[C@H]1C(=O)N[C@@H](c1ccccc1)c1ccc(C(C)C)cc1 [Compound 226, (2RS,4R)-4-fluoro-1-[2-(5-methyl-1H-1,2,3-tetrazol-1-yl)acetyl]-N-[(S)-phenyl[4-(propan-2-yl)phenyl]methyl]pyrrolidine-2-carboxamide]
- IC50 [1]: 0.083 µM
- IC50 [2]: > 100 µM

Structure (SMILES): CC(=O)N1CCC[C@@H]1CC(=O)N1C[C@H](F)C[C@H]1C(=O)N[C@@H](c1ccccc1)c1ccc(C(C)C)cc1 [Compound 155, (2S,4R)-1-{2-[(2R)-1-acetylpyrrolidin-2-yl]acetyl}-4-fluoro-N-[(S)-phenyl[4-(propan-2-yl)phenyl]methyl]pyrrolidine-2-carboxamide]
- IC50 [1]: 0.206 µM
- IC50 [2]: > 100 µM

Structure (SMILES): CC(C)c1ccc([C@@H](NC(=O)[C@@H]2C[C@@H](F)CN2C(=O)Cc2cccnc2)c2ccccc2)cc1 [Compound 38, (2S,4R)-4-fluoro-N-[(S)-phenyl[4-(propan-2-yl)phenyl]methyl]-1-[2-(pyridin-3-yl)acetyl]pyrrolidine-2-carboxamide]
- IC50 [1]: 0.051 µM
- IC50 [2]: > 100 µM

Structure (SMILES): CC(C)c1ccc([C@@H](NC(=O)[C@@H]2C[C@@H](F)CN2C(=O)Cc2cnnn2C)c2ccccc2)cc1 (stereo in doubt) [Compound 228, (2RS,4R)-4-fluoro-1-[2-(1-methyl-1H-1,2,3-triazol-5-yl)acetyl]-N-[(S)-phenyl[4-(propan-2-yl)phenyl]methyl]pyrrolidine-2-carboxamide]
- IC50 [1]: 0.077 µM
- IC50 [2]: > 100 µM

Structure (SMILES): CC(C)c1ccc([C@@H](NC(=O)[C@@H]2C[C@@H](F)CN2C(=O)CCc2cnn(C)c2)c2ccccc2)cc1 [Compound 76, (2S,4R)-4-fluoro-1-[3-(1-methyl-1H-pyrazol-4-yl)propanoyl]-N-[(S)-phenyl[4-(propan-2-yl)phenyl]methyl]pyrrolidine-2-carboxamide]
- IC50 [1]: 0.106 µM
- IC50 [2]: > 100 µM

Structure (SMILES): CC(=O)NCC(=O)N1CCC[C@H]1C(=O)N[C@@H](c1ccccc1)c1ccc(C2CC2)c(F)c1 [Compound 421, (2S)-N-[(S)-(4-cyclopropyl-3-fluorophenyl)(phenyl)methyl]-1-(2-acetamidoacetyl) pyrrolidine-2-carboxamide]
- IC50 [1]: 0.294 µM
- IC50 [2]: > 100 µM

Structure (SMILES): CC(C)c1ccc([C@@H](NC(=O)[C@@H]2C[C@@H](F)CN2C(=O)CS(=O)(=O)N2CCCC2)c2ccccc2)cc1 [Compound 129, (2S,4R)-4-fluoro-N-[(S)-phenyl[4-(propan-2-yl)phenyl]methyl]-1-[2-(pyrrolidine-1-sulfonyl)acety]pyrrolidine-2-carboxamide]
- IC50 [1]: 0.217 µM
- IC50 [2]: > 100 µM

Structure (SMILES): CC(C)c1ccc([C@@H](NC(=O)[C@@H]2C[C@@H](F)CN2C(=O)CCc2ccccn2)c2ccccc2)cc1 [Compound 65, (2S,4R)-4-fluoro-N-[(S)-phenyl[4-(propan-2-yl)phenyl]methyl]-1-[3-(pyridin-2-yl)propanoyl]pyrrolidine-2-carboxamide]
- IC50 [1]: 0.076 µM
- IC50 [2]: > 100 µM

Structure (SMILES): Cc1ccc(CCC(=O)N2C[C@H](F)C[C@H]2C(=O)N[C@@H](c2ccccc2)c2ccc(C(C)C)cc2)cn1 [Compound 100, (2S,4R)-4-fluoro-1-[3-(6-methylpyridin-3-yl)propanoyl]-N-[(S)-phenyl[4-(propan-2-yl)phenyl]methyl]pyrrolidine-2-carboxamide]
- IC50 [1]: 0.073 µM
- IC50 [2]: > 100 µM

Structure (SMILES): CC(C)c1ccc([C@@H](NC(=O)[C@@H]2C[C@@H](F)CN2C(=O)CCCc2cccnc2)c2ccccc2)cc1 [Compound 94, (2S,4R)-4-fluoro-N-[(S)-phenyl[4-(propan-2-yl)phenyl]methyl]-1-[4-(pyridin-3-yl)butanoyl]pyrrolidine-2-carboxamide]
- IC50 [1]: 0.188 µM
- IC50 [2]: > 100 µM

Structure (SMILES): CC(=O)N1CCCC(C(=O)N2C[C@H](F)C[C@H]2C(=O)N[C@@H](c2ccccc2)c2ccc(C(C)C)cc2)CC1 (stereo partly drawn) [Compound 169, (2S,4R)-1-(1-acetylazepane-4-carbonyl)-4-fluoro-N-[(S)-phenyl[4-(propan-2-yl)phenyl]methyl]pyrrolidine-2-carboxamide]
- IC50 [1]: 0.091 µM
- IC50 [2]: > 100 µM

Structure (SMILES): CC(C)c1ccc([C@@H](NC(=O)[C@@H]2C[C@@H](F)CN2C(=O)Cc2cncnc2)c2ccccc2)cc1 [Compound 27, (2S,4R)-4-fluoro-N-[(S)-phenyl[4-(propan-2-yl)phenyl]methyl]-1-[2-(pyrimidin-5-yl)acetyl]pyrrolidine-2-carboxamide]
- IC50 [1]: 0.023 µM
- IC50 [2]: > 100 µM

Structure (SMILES): CC(C)c1ccc([C@@H](NC(=O)[C@@H]2C[C@@H](F)CN2C(=O)Cc2nnco2)c2ccccc2)cc1 (stereo in doubt) [Compound 224, (2RS,4R)-4-fluoro-1-[2-(1,3,4-oxadiazol-2-yl)acetyl]-N-[(S)-phenyl[4-(propan-2-yl)phenyl]methyl]pyrrolidine-2-carboxamide]
- IC50 [1]: 0.07 µM
- IC50 [2]: > 100 µM

Structure (SMILES): CC(=O)N1CC2(CCCC2CC(=O)N2C[C@H](F)C[C@H]2C(=O)N[C@@H](c2ccccc2)c2ccc(C(C)C)cc2)C1 (stereo partly drawn) [Compound 7, (2S,4R)-1-(2-{2-acetyl-2-azaspiro[3.4]octan-5-yl}acetyl)-4-fluoro-N-[(S)-phenyl[4-(propan-2-yl)phenyl]methyl]pyrrolidine-2-carboxamide]
- IC50 [1]: 0.113 µM
- IC50 [2]: > 100 µM
